ChEMBL document CHEMBL1142640, “New natural product isolation and comparison of the secondary metabolite content of three distinct samples of the sea hare Aplysia dactylomela from tenerife” (J Nat Prod, 2000)
Values after ≈ are worked out from the molar mass of the structure shown. Active and inactive are the calls of the source. The calls are words filed in the database; no cut-off is given here.

Columns and labels:
[1] = system: Microbotryum violaceum; experiment: Antifungal activity against Microbotryum violaceae at 50 ug/disk; assay type: functional
[2] = system: Lu1; experiment: Cytotoxicity against human Lu1 cells; assay type: functional, cell-based
[3] = system: MCF7; experiment: Cytotoxicity against human MCF7 cells; assay type: functional, cell-based
[4] = system: ZR-75-1; experiment: Cytotoxicity against human ZR-75-1 cells; assay type: functional, cell-based
[5] = system: Fusarium oxysporum; experiment: Antifungal activity against Fusarium oxysporum at 50 ug/disk; assay type: functional
[6] = system: HepG2; experiment: Cytotoxicity against human HepG2 cells; assay type: functional, cell-based
[7] = system: Artemia salina; experiment: (§1) Toxicity in Artemia salina at 0.5 mg/mL after 48 hrs; assay type: organism-based; settings: in vivo, 48 h
[8] = Cytotoxicity against human HMO2 cells; assay type: functional, cell-based
[9] = system: KB; experiment: Cytotoxicity against human KB cells; assay type: functional, cell-based
[10] = Antibacterial activity against Escherichia coli assessed as few colonies of test organism growing within inhibition zone at 50 ug/disk; settings: read-out: IZ
[11] = system: Aspergillus pseudoglaucus; experiment: Antifungal activity against Eurotium repens at 50 ug/disk; assay type: functional
[12] = system: [Chlorella] fusca; experiment: Antialgal activity against Chlorella fusca assessed as no colonies of test organism growing within inhibition zone at 50 ug/disk; assay type: functional; settings: Scenedesmus fuscus; read-out: IZ
[13] = system: Escherichia coli; experiment: Antibacterial activity against Escherichia coli at 50 ug/disk; assay type: functional
[14] = system: Priestia megaterium; experiment: Antibacterial activity against Bacillus megaterium at 50 ug/disk; assay type: functional
[15] = system: Mycotypha microspora; experiment: Antifungal activity against Mycotypha microspora at 50 ug/disk; assay type: functional
[16] = system: [Chlorella] fusca; experiment: Antialgal activity against Chlorella fusca at 50 ug/disk; assay type: functional; settings: Scenedesmus fuscus; for zone of inhibition at 50 µg/disc: read-out: IZ
[17] = system: Microbotryum violaceum; experiment: Antifungal activity against Microbotryum violaceae assessed as few colonies of test organism growing within inhibition zone at 50 ug/disk; assay type: functional; settings: read-out: IZ
[18] = system: Aspergillus pseudoglaucus; experiment: Antifungal activity against Eurotium repens assessed as few colonies of test organism growing within inhibition zone at 50 ug/disk; assay type: functional; settings: read-out: IZ
[19] = system: HeLa; experiment: Cytotoxicity against human HeLa cells; assay type: functional, cell-based
[20] = as §1; assay type: organism-based; settings: in vivo, read-out: Activity
[21] = Toxicity in Artemia salina at 0.5 mg/mL after 24 hrs; assay type: organism-based; settings: in vivo, read-out: Activity
[22] = target: Tyrosine-protein kinase Lck (Homo sapiens) (UniProt P06239); experiment: Inhibition of p56lck
[23] = system: Mycotypha microspora; experiment: Antifungal activity against Mycotypha microspora assessed as few colonies of test organism growing within inhibition zone at 50 ug/disk; assay type: functional; settings: read-out: IZ
[24] = target: Human immunodeficiency virus type 1 reverse transcriptase (Human immunodeficiency virus 1) (UniProt Q72547); experiment: Inhibition of HIV1 reverse transcriptase
[25] = system: Caenorhabditis elegans; experiment: Nematicidal activity against Caenorhabditis elegans; assay type: functional, organism-based
[26] = system: Microbotryum violaceum; experiment: Antifungal activity against Microbotryum violaceae assessed as no colonies of test organism growing within inhibition zone at 50 ug/disk; assay type: functional; settings: read-out: IZ
[27] = system: Priestia megaterium; experiment: Antibacterial activity against Bacillus megaterium assessed as no colonies of test organism growing within inhibition zone at 50 ug/disk; assay type: functional; settings: read-out: IZ
[28] = system: [Chlorella] fusca; experiment: Antialgal activity against Chlorella fusca assessed as few colonies of test organism growing within inhibition zone at 50 ug/disk; assay type: functional; settings: Scenedesmus fuscus; read-out: IZ
[29] = system: P388; experiment: Cytotoxicity against mouse P388 cells; assay type: functional, cell-based
[30] = system: HT-29; experiment: Cytotoxicity against human HT29 cells; assay type: functional, cell-based
[31] = Cytotoxicity against human MEL28 cells; assay type: functional, cell-based; settings: SK-MEL-28
[32] = system: A549; experiment: Cytotoxicity against human A549 cells; assay type: functional, cell-based
[33] = Cytotoxicity against rat L6 cells; assay type: cell-based; settings: read-out: MIC
[34] = system: Fusarium oxysporum; experiment: Antifungal activity against Fusarium oxysporum assessed as few colonies of test organism growing within inhibition zone at 50 ug/disk; assay type: functional; settings: read-out: IZ
[35] = system: Trypanosoma cruzi; experiment: Antitrypanosomal activity against Trypanosoma cruzi; assay type: functional, organism-based
[36] = system: Mycotypha microspora; experiment: Antifungal activity against Mycotypha microspora assessed as no colonies of test organism growing within inhibition zone at 50 ug/disk; assay type: functional; settings: read-out: IZ

Chain of Tyrosine-protein kinase Lck (Homo sapiens) (P06239 2-509 limits assumed): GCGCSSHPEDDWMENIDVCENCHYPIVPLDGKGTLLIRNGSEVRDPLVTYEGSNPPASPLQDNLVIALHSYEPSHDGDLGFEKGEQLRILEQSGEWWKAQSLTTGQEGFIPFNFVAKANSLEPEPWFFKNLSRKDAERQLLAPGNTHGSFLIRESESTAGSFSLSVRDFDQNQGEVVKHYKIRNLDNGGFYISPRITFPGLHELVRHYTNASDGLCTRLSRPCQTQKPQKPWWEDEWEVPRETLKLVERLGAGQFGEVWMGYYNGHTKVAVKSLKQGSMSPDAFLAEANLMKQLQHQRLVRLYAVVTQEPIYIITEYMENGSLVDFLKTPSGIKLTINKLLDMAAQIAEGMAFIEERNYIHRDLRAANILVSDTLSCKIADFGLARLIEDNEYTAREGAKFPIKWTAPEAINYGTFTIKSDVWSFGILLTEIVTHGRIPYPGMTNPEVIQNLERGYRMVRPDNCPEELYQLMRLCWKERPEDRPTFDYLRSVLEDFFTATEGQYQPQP

SMILES	Activity [1]	IC50 [2] [µg/mL]	IC50 [4] [µg/mL]	Activity [5]	Activity [7]	IC50 [9] [µg/mL]	Activity [11]	Activity [13]	Activity [14]	Activity [15]	Activity [16]	other results
C[C@](Cl)(/C=C/Br)[C@@H](Cl)/C=C/C(=C\Cl)C(Cl)Cl	inactive	> 25	> 25	inactive	Not Active	> 25	inactive					IC50 [3]: 1.5 µg/mL (≈ 3.87 µM); IC50 [6]: 1 µg/mL (≈ 2.58 µM); IC50 [8]: 1.1 µg/mL (≈ 2.84 µM); zone of inhibition at 50 µg/disc [10]: 2 mm; zone of inhibition at 50 µg/disc [12]: 1 mm
CC(=O)O[C@@H]1C[C@@H](Br)C(C)(C)O[C@]1(C)[C@H]1CC[C@](C)(Cl)[C@@H](Br)C1	inactive			inactive	Not Active		inactive	inactive	inactive	inactive	inactive	
CC(=O)O[C@@H](C=C(C)C)C/C(C)=C1\CC[C@](C)(Br)[C@@H](Cl)C1		> 25	> 25		Not Active	> 25		inactive	inactive		inactive	zone of inhibition at 50 µg/disc [17]: 1 mm; zone of inhibition at 50 µg/disc [18]: 2 mm
C[C@@]1(Cl)C[C@@](C)(Br)[C@H](/C=C/Cl)C[C@@H]1Br		> 25	> 25			> 25					inactive	IC50 [19]: 1 µg/mL (≈ 2.74 µM); mortality at 48 h, 0.5 mg/mL [20]: 90%; zone of inhibition at 50 µg/disc [17]: 1 mm; zone of inhibition at 50 µg/disc [10]: 1 mm; zone of inhibition at 50 µg/disc [18]: 1 mm
C=C1C[C@H](O)[C@H](Br)C(C)(C)[C@@]12CC[C@](C)(Br)[C@@H](Cl)C2									inactive			inhibition zone (IZ) [1]: inactive; IC50 [19]: 10 µg/mL (≈ 24.1 µM); inhibition zone (IZ) [13]: inactive; inhibition zone (IZ) [5]: inactive; inhibition zone (Toxicity) [7]: Not Active; inhibition zone (IZ) [15]: inactive; inhibition zone (IZ) [11]: inactive; inhibition zone (IZ) [16]: inactive
C=C1C[C@H](OC(C)=O)[C@H](Br)C(C)(C)[C@@]12CC[C@](C)(Br)[C@@H](Cl)C2		> 25	> 25		Not Active	> 25		inactive	inactive		inactive	zone of inhibition at 50 µg/disc [18]: 1 mm
CC1(C)C[C@@H](Br)C[C@](C)(O)[C@@]12C=C/C(=C/Br)CC2		> 25	> 25			> 25					inactive	IC50 [19]: 4.5 µg/mL (≈ 11.9 µM); IC50 [3]: < 1 µg/mL; mortality at 24 h, 0.5 mg/mL [21]: 100%; Activity [22]: inactive; zone of inhibition at 50 µg/disc [23]: 1 mm; Activity [24]: inactive; IC50 [6]: < 1 µg/mL; IC50 [8]: 17 µg/mL (≈ 45 µM); Activity [25]: Active; zone of inhibition at 50 µg/disc [26]: 3 mm; zone of inhibition at 50 µg/disc [27]: 1 mm; zone of inhibition at 50 µg/disc [18]: 2 mm
CC1(C)O[C@](C)([C@H]2CC[C@](C)(Cl)[C@@H](Br)C2)CC[C@H]1Br [CAESPITANE]	inactive	> 25	> 25	inactive		> 25	inactive	inactive	inactive			zone of inhibition at 50 µg/disc [28]: 1 mm; mortality at 48 h, 0.5 mg/mL [20]: 40%
CC1(C)O[C@](C)([C@H]2CC[C@](C)(Cl)[C@@H](Br)C2)[C@H](O)C[C@H]1Br [CAESPITOL]	inactive	> 25	> 25	inactive		> 25	inactive	inactive	inactive			zone of inhibition at 50 µg/disc [28]: 3 mm; IC50 [19]: 100 µg/mL (≈ 231 µM); Activity [22]: inactive; Activity [24]: inactive; mortality at 48 h, 0.5 mg/mL [20]: 70%; Activity [25]: Active
CC1(C)C=CC(=O)[C@@](C)([C@H]2CC[C@](C)(Cl)[C@@H](Br)C2)O1 [CAESSPITENONE]	inactive			inactive	Not Active		inactive	inactive	inactive	inactive	inactive	
C=C1C[C@@H](O)[C@@H](Br)C(C)(C)[C@]12CC[C@](C)(Cl)[C@@H](Br)C2 [CARTILAGINEOL]												inhibition zone (IZ) [1]: inactive; IC50 [29]: 5 µg/mL (≈ 12.1 µM); IC50 [30]: 0.25 µg/mL (≈ 0.603 µM); IC50 [31]: 1 µg/mL (≈ 2.41 µM); inhibition zone (IZ) [13]: inactive; inhibition zone (IZ) [5]: inactive; inhibition zone (IZ) [14]: inactive; inhibition zone (Toxicity) [7]: Not Active; inhibition zone (IZ) [15]: inactive; inhibition zone (IZ) [11]: inactive; IC50 [32]: 1 µg/mL (≈ 2.41 µM); inhibition zone (IZ) [16]: inactive
C=C[C@@](C)(O)CC[C@H]1[C@](C)(CC[C@H](Br)C(C)(C)Cl)[C@@H]2CC[C@@]1(C)O2 [DACTYLOMELOL]	inactive			inactive	Not Active		inactive	inactive	inactive	inactive	inactive	
C=C[C@]1(C)CC[C@@H](Br)[C@](C)(CC[C@@H]2[C@@H](C)[C@]3(C)CC[C@@]2(C)O3)O1 [DACTYLOPYRANOID]	inactive			inactive	Not Active		inactive	inactive	inactive	inactive	inactive	
CCOC(=O)c1ccccc1C(=O)OCC [DIETHYL PHTHALATE]												zone of inhibition at 50 µg/disc [16]: 13 mm
C=C1C[C@H](O)[C@H](Br)C(C)(C)[C@@]12CCC(C)=C(Cl)C2 [ELATOL]		> 25	> 25			> 25					inactive	IC50 [29]: 1 µg/mL (≈ 3 µM); IC50 [30]: 0.1 µg/mL (≈ 0.3 µM); IC50 [31]: 0.1 µg/mL (≈ 0.3 µM); IC50 [3]: < 1 µg/mL; MCC [33]: 3.3 µg/mL; zone of inhibition at 50 µg/disc [34]: 7 mm; mortality at 24 h, 0.5 mg/mL [21]: 100%; Activity [22]: inactive; zone of inhibition at 50 µg/disc [23]: 25 mm; Activity [24]: inactive; IC50 [35]: 0.92 µg/mL (≈ 2.76 µM); IC50 [6]: < 1 µg/mL; IC50 [8]: < 1 µg/mL; Activity [25]: Active; zone of inhibition at 50 µg/disc [26]: 3 mm; IC50 [32]: 0.1 µg/mL (≈ 0.3 µM); zone of inhibition at 50 µg/disc [27]: 2 mm; zone of inhibition at 50 µg/disc [18]: 25 mm
Cc1cc([C@H]2CC[C@](C)(Cl)[C@@H](Br)C2)co1 [FUROCAESPITANE]	inactive			inactive	Not Active		inactive	inactive	inactive	inactive	inactive	
C=CC(C)(O)CC[C@@H]1C(=C)CC[C@@H]2C(C)(C)[C@H](Br)CC[C@@]12C (some centres not stated) [ISOPINNATOL B]	inactive	> 25	> 25	inactive	Active	> 25	inactive	inactive	inactive		inactive	
CC1=C([C@H]2CC[C@](C)(Cl)[C@@H](Br)C2)C[C@@H](Br)C(C)(C)O1 [LAUCAPYRANOID A]	inactive			inactive	Not Active		inactive	inactive	inactive	inactive	inactive	
Clc1ccc(COC(Cn2ccnc2)c2ccc(Cl)cc2Cl)c(Cl)c1 (configuration not stated) [MICONAZOLE]												zone of inhibition at 50 µg/disc ([1]; read-out: IZ): 20 mm; zone of inhibition at 50 µg/disc ([13]; read-out: IZ): 1 mm; zone of inhibition at 50 µg/disc ([5]; read-out: IZ): 32 mm; zone of inhibition at 50 µg/disc ([14]; read-out: IZ): 10 mm; zone of inhibition at 50 µg/disc ([15]; read-out: IZ): 5 mm; zone of inhibition at 50 µg/disc ([11]; read-out: IZ): 3 mm; zone of inhibition at 50 µg/disc [16]: 4 mm
C=C1C[C@@H](O)[C@@H](Br)C(C)(C)[C@]12CC[C@@](C)(Br)[C@H](Cl)C2 [OBTUSOL]		> 25	> 25			> 25		inactive	inactive			zone of inhibition at 50 µg/disc [28]: 3 mm; zone of inhibition at 50 µg/disc [36]: 6 mm; IC50 [19]: 50 µg/mL (≈ 121 µM); IC50 [3]: 1.5 µg/mL (≈ 3.62 µM); Activity [22]: inactive; Activity [24]: inactive; IC50 [6]: < 1 µg/mL; mortality at 48 h, 0.5 mg/mL [20]: 80%; IC50 [8]: 7 µg/mL (≈ 16.9 µM); Activity [25]: Active
